Measurements from US20050118109A1, “Method for treating lung diseases associated with ventilation-perfusion mismatches” (priority 2003, published 2005).

What was measured:
[1] = test system: arthritis in an experimental model; details: treatment with VIP; cited from earlier work
[2] = test system: pulmonary vascular system; details: in vivo; cited from earlier work
[3] = test system: patient with chronic bronchitis with V/Q-mismatch; assay: Inhalation of VIP by patient No. 4: chronic bronchitis with V/Q-mismatch, no bronchial obstruction; assay type: in vivo, human
[4] = target: T1, Type I binding sites (Homo sapiens, UniProt P41586); details: cited from earlier work
T1 sequence (P41586 21-468): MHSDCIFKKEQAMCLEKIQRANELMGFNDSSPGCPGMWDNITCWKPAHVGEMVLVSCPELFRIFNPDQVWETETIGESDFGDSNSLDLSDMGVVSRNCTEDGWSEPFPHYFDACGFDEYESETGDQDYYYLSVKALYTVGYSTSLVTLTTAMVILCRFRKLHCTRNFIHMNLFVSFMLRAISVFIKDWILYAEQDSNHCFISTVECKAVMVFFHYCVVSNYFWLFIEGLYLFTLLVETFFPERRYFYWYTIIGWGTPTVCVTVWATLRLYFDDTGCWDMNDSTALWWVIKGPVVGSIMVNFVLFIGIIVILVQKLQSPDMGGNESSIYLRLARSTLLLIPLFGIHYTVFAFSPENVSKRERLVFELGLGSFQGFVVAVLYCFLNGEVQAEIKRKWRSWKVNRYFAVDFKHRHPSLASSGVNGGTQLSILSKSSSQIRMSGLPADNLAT

[5] = patient No. 4, after 1 and 2 days of inhalation

## His-Ser-Asp-Ala-Val-Phe-Thr-Asp-Asn-Tyr-Thr-Arg-Leu-Arg-Lys-Gln-Met-Ala-Val-Lys-Lys-Tyr-Leu-Asn-Ser-Ile-Leu-Asn [VIP]
[1]
  incidence and severity of arthritis: reduce significantly
  joint swelling and destruction of cartilage and bone: completely abrogating
[2]
  resistance in the pulmonary vascular system: decrease the resistance
[3]; [5]
  pulmonary gas exchange in lung function analysis: completely normal pulmonary gas exchange
  severe decrease of paO2 caused by V/Q-mismatch: significantly ameliorated
[3]; patient No. 4, after inhalation of VIP
  V/Q-mismatch: totally removed
[4]
  affinity for type I binding sites: much lower affinity
